The values that follow come from patent US4163839A, “Isocoformycin and a process for the production thereof” (priority 1977, dated 1979).

The structures appear in SMILES notation. Read-outs that look alike come from different tables or passages of the source.

Experiment [1] addresses Takadiastase-Y. Nature of the experiment: Inhibition of Takadiastase-Y deamination (decrease in optical density). The note with it: at 45° C., 2 min, read-out: ID50 (the source's name). The format is biochemical. On the procedure:
(§1) The novel compound of the present invention, isocoformycin (III), is useful because of its ability to inhibit strongly the deamination of formycin, adenine arabinoside and cordycepin by the adenosine deaminase present in mammals and birds. The inhibitory activities of isocoformycin on adenosine deaminase were measured using formycin and adenosine as the substrate. Three ml of a solution of adenosine or formycin in 0.05 M phosphate buffer (12 mg/ml, pH 7.5 and 6.5, respectively) was put in a quartz cell of 1 cm in length and 0.1 ml of a solution containing a known amount of isocoformycin in distilled water was added. The reaction was started by addition of 0.1 ml of enzyme solution (adenosine deaminase from calf intestine: 1 mg/ml of 0.025 M ammonium acetate or Takadiastase-Y: 4 mg/ml of distilled water) and the decreases for 2 minutes in optical densities at 265 nm in the case of adenosine or 295 nm in the case of formycin were recorded on Beckmann spectrophotometer equipped with the Gilford recorder. The concentration of the inhibitor for 50% inhibition (ID50) was calculated from the difference of the optical densities as shown in Table 1.

In experiment [2] the test system is Escherichia coli NIHJ. Nature of the experiment: Disc method on nutrient agar against Escherichia coli NIHJ. It is filed as cell-based. The note with it: for Diameter (inhibition diameter): disc 8 mm, medium containing formycin 50 μg/ml.
In experiment [3] the test system is mouse leukemia L-1210 cells. The experiment is described as follows: Survival period of mice implanted with L-1210 cells. The format is in vivo. How it is done: Each dose was injected i.p. 2 hrs. after implantation of 10^5 L-1210 cells once a day for 10 days.
"S. period" is the mean survival time in days.
"T/C" is the ratio of the mean survival time of the treated (with drug) animals versus the control's (no drug) and is expressed as a percentage.

Experiment [4] concerns the target T1, adenosine deaminase from calf intestine (Bos taurus, UniProt P56658).
T1 construct: from tissue; host or cells: calf intestine
T1 sequence (P56658 1-363): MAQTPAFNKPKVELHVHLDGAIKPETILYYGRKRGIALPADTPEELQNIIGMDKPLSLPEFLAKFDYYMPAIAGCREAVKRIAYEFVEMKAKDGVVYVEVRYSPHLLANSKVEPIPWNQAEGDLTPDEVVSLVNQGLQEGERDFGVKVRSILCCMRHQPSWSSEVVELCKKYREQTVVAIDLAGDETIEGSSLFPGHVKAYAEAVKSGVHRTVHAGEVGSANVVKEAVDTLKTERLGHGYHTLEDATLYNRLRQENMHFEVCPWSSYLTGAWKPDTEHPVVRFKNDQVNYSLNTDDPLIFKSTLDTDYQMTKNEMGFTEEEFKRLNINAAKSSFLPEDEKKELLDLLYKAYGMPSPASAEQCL
Nature of the experiment: Inhibition of adenosine deaminase from calf intestine (decrease in optical density). It is filed as biochemical. The note with it: at 25° C., read-out: ID50 (the source's name). On the procedure: as §1

Experiment [5] relates to mouse leukemia L-1210 cells. Nature of the experiment: Inhibition of multiplication of L-1210 cells in tissue culture (Lowry method). The format is cell-based. From the text:
The isocoformycin is also useful as a strong synergist of formcyin and adenine arabinoside for their antitumor activities. […] The inhibitory effect of formycin with or without isocoformycin on multiplication of the mouse leukemia L-1210 cells measured by the Lowry method [O. H. Lowry, N. J. Rosenbrough, A. L. Farr and R. J. Randall, J. Biol. Chem., 193, 265 (1951)] is directed in Table 2.

Where [6] appears, read: isocoformycin 1.5 μg/m i.p. once a day for 10 days, without formycin.
Where [7] appears, read: isocoformycin 1.5 μg/m with formycin 50 μg/m, i.p. once a day for 10 days.
Setting [8] is: isocoformycin 3.1 μg/m i.p. once a day for 10 days, without formycin.
Setting [9] is: isocoformycin 3.1 μg/m with formycin 50 μg/m, i.p. once a day for 10 days.
Setting [10] is: isocoformycin 6.2 μg/m i.p. once a day for 10 days, without formycin.
The mark [11] stands for this setting: isocoformycin 6.2 μg/m with formycin 50 μg/m, i.p. once a day for 10 days.
[12] abbreviates: isocoformycin 12.5 μg/m i.p. once a day for 10 days, without formycin.
The mark [13] stands for this setting: isocoformycin 12.5 μg/m with formycin 50 μg/m, i.p. once a day for 10 days.
The mark [14] stands for this setting: isocoformycin 25 μg/m i.p. once a day for 10 days, without formycin.
Where [15] appears, read: isocoformycin 25 μg/m with formycin 50 μg/m, i.p. once a day for 10 days.
Where [16] appears, read: isocoformycin 50 μg/m i.p. once a day for 10 days, without formycin.
Where [17] appears, read: isocoformycin 50 μg/m with formycin 50 μg/m, i.p. once a day for 10 days.
Where [18] appears, read: formycin 50 μg/m i.p. once a day for 10 days, isocoformycin 0.

The inhibition is the change of the read-out against control, counted positive when it falls. For the compound `OC[C@H]1O[C@@H](n2cnc3c2N=CNC(O)C3)[C@H](O)[C@@H]1O` (stereo partly drawn) [Isocoformycin, 3-β-D-ribofuranosyl-3,6,7,8-tetrahydroimidazo[4,5-d][1,3]-diazepin-7-ol], the IC50 amounted to 1100 nM in experiment [1] (substrate adenosine, pH 7.5); 2000 nM in experiment [1] (substrate formycin, pH 6.5); 86 nM in experiment [4] (substrate adenosine, pH 7.5); 35 nM in experiment [4] (substrate formycin, pH 6.5). Moreover, the “Diameter (inhibition diameter)” value is recorded as 22.0 mm in experiment [2] (isocoformycin 2.5 μg/ml), 25.0 mm in experiment [2] (isocoformycin 10 μg/ml), 32.0 mm in experiment [2] (isocoformycin 40 μg/ml) and 36.0 mm in experiment [2] (isocoformycin 200 μg/ml). Moreover, the “inhibitory activity against Escherichia coli NIHJ” value in experiment [2] (without formycin, isocoformycin 2 mg/ml) is given as “no inhibitory activity”. In addition, the “prolongation in the survival period” value in experiment [3] (formycin combined with isocoformycin intraperitoneally) is “marked prolongation”. Besides, the T/C % in experiment [3] (setting [6]) is 93%; in experiment [3] (setting [7]), 145%; in experiment [3] (setting [8]), 105%; in experiment [3] (setting [9]), 163%; in experiment [3] (setting [10]) it was 99%; in experiment [3] (setting [11]), 140%. For the same compound, the T/C % in experiment [3] (setting [12]) is reported as 116%; in experiment [3] (setting [13]) it was 163%; in experiment [3] (setting [14]), 93%; in experiment [3] (setting [15]), 174%; in experiment [3] (setting [16]) it was 93%; in experiment [3] (setting [17]), 174%. Further, the “s.period (mean survival time)” value in experiment [3] (setting [6]) is given as 8.0 days; in experiment [3] (setting [7]), 12.5 days; in experiment [3] (setting [8]), 9.0 days; in experiment [3] (setting [9]), 14.0 days; in experiment [3] (setting [10]), 9.0 days; in experiment [3] (setting [11]) it was 12.0 days. The “s.period (mean survival time)” value came to 8.5 days in experiment [3] (setting [12]); 14.0 days in experiment [3] (setting [13]); 10.0 days in experiment [3] (setting [14]); 15.0 days in experiment [3] (setting [15]); 8.0 days in experiment [3] (setting [16]); 15.0 days in experiment [3] (setting [17]). Moreover, in experiment [5] (Mus musculus, L1210, isocoformycin 0.20 μg/ml, formycin 0.0, read-out: Inhibition (%)), the inhibition at 0.2 µg/mL is 0%. Moreover, the inhibition at 0.5 µg/mL in experiment [5] (Mus musculus, L1210, isocoformycin 0.50 μg/ml, formycin 0.0) is -4%. Further, the figures for the “Inhibition (%)” value in experiment [5] (isocoformycin 0.20 μg/ml with formycin 0.20 μg/ml) and in experiment [5] (isocoformycin 0.50 μg/ml with formycin 0.20 μg/ml) were 42% and 55%, respectively. For the same compound, in experiment [5] (tissue cultures, with formycin), the “synergistic effect with formycin in the inhibition of cell multiplication” value is “strong synergistic effect”.
For `OCC1NC=Nc2c1ncn2[C@@H]1O[C@H](CO)[C@@H](O)[C@H]1O` (stereo partly drawn) [9-β-D-ribofuranosyl-6-hydroxymethyl-1,6-dihydropurine, reference compound], the IC50 in experiment [1] (substrate adenosine, pH 7.5) was determined as 280000 nM; in experiment [1] (substrate formycin, pH 6.5), 200000 nM; in experiment [4] (substrate adenosine, pH 7.5), 5800 nM; in experiment [4] (substrate formycin, pH 6.5), 2600 nM.
As for `Nc1ncnc2c([C@@H]3O[C@H](CO)[C@@H](O)[C@H]3O)[nH]nc12` [Formycin, formycin], in experiment [3] (setting [18]), the T/C % was found to be 122% and the “s.period (mean survival time)” value came to 10.5 days. Moreover, in experiment [5] (Mus musculus, L1210), the inhibition at 0.2 µg/mL came to 8%.
